Patent publication US8551524B2, “Anti-diabetic combinations” (priority 2007, dated 2013)

Settings: human, in vivo
Text: a. […] Laboratory results were then reviewed for these particular patients to determine which patients actually had clinically important changes in a given laboratory parameter.

| Compound | patients with adverse events | clinically important decreases in any hematological parameter directly attributable to the drug | responsibility for clinically meaningful elevations in ALT and AST |
| --- | --- | --- | --- |
| CN(C)C(=N)N=C(N)N [metformin] | 10% | – | – |
| N[C@@H](CC(=O)N1CCn2c(nnc2C(F)(F)F)C1)Cc1cc(F)c(F)cc1F [sitagliptin] | 8% | No patient experienced clinically important decreases | not responsible for the variations |
